Test results published in US7141533B2, “Hetaryl-substituted heterocycles” (Bayer CropScience AG, priority 2000, dated 2006).

Assays:
Digitaria = assay: Post-emergence test; format: in vivo; settings: after three weeks
Description: (§1) [table] To produce a suitable preparation of active compound, 1 part by weight of active compound is mixed with the stated amount of solvent, the stated amount of emulsifier is added and the concentrate is diluted with water to the desired concentration. Test plants of a height of 5 to 15 cm are sprayed with the preparation of active compound such that the particular amounts of active compound desired are applied per unit area. The concentration of the spray liquor is chosen such that the particular amounts of active compound desired are applied in 1000 1 of water/ha. After three weeks, the degree of damage to the plants is rated in % damage in comparison to the development of the untreated control. [table]

Avena fatua [1] = assay: Post-emergence test; format: in vivo; settings: after three weeks
Description: as §1

Stellaria = assay: Post-emergence test; format: in vivo; settings: 250 g ai/ha, after three weeks
Description: as §1

Echinochloa = assay: Post-emergence test; format: in vivo; settings: after three weeks
Description: as §1

rice = assay: Post-emergence test; format: in vivo; settings: 250 g ai/ha, after three weeks
Description: as §1

[2] = system: larvae of the mustard beetle (Phaedon cochleariae); assay: Phaedon larvae test; format: in vivo; settings: cabbage leaves dipped
Description: (§2) [table] To produce a suitable preparation of active compound, 1 part by weight of active compound is mixed with the stated amounts of solvent and emulsifier, and the concentrate is diluted with emulsifier-containing water to the desired concentration. Cabbage leaves (Brassica oleracea) are treated by being dipped into the preparation of active compound of the desired concentration and are populated with the larvae of the mustard beetle (Phaedon cochleariae) while the leaves are still moist. After the desired period of time, the kill in % is determined. 100% means that all beetle larvae have been killed; 0% means that none of the beetle larvae have been killed.

Alopecurus = assay: Post-emergence test; format: in vivo; settings: after three weeks
Description: as §1

Abutilon = assay: Post-emergence test; format: in vivo; settings: 250 g ai/ha, after three weeks
Description: as §1

Amaranthus = assay: Post-emergence test; format: in vivo; settings: 250 g ai/ha, after three weeks
Description: as §1

Setaria [3] = assay: Post-emergence test; format: in vivo; settings: 250 g ai/ha, after three weeks
Description: as §1

[4] = system: greenhouse red spider mite (Tetranychus urticae); assay: Tetranychus test (OP-resistant/dip treatment); format: in vivo; settings: bean plants dipped, OP-resistant
Description: [table] To produce a suitable preparation of active compound, 1 part by weight of active compound is mixed with the stated amounts of solvent and emulsifier, and the concentrate is diluted with emulsifier-containing water to the desired concentration. Bean plants (Phaseolus vulgaris) which are heavily infested by all stages of the greenhouse red spider mite (Tetranychus urticae) are dipped into a preparation of active compound of the desired concentration. After the desired period of time, the effect in % is determined. 100% means that all spider mites have been killed. 0% means that none of the spider mites have been killed.

[5] = system: caterpillars of the army worm (Spodoptera frugiperda); assay: Spodoptera frugiperda test; format: in vivo; settings: cabbage leaves dipped
Description: as §2, with “caterpillars” for “the larvae”, “army worm (Spodoptera frugiperda)” for “mustard beetle (Phaedon cochleariae)”, “caterpillars” for “beetle larvae”

[6] = system: peach aphid (Myzus persicae); assay: Myzus test; format: in vivo; settings: cabbage leaves dipped
Description: as §2, with “oleracea) which are heavily infested by the peach aphid (Myzus persicae)” for “oleracea)”, “concentration.” for “concentration and are populated with the larvae of the mustard beetle (Phaedon cochleariae) while the leaves are still moist.”, “aphids” for “beetle larvae”

Sinapis = assay: Post-emergence test; format: in vivo; settings: 250 g ai/ha, after three weeks
Description: as §1

sugar beet [7] = assay: Post-emergence test; format: in vivo; settings: after three weeks
Description: as §1

Soya bean = assay: Post-emergence test; format: in vivo; settings: 250 g ai/ha, after three weeks
Description: as §1

Meloidogyne incognita = assay: Meloidogyne test; format: in vivo; settings: Meloidogyne incognita egg/larvae on lettuce in sand
Description: [table] To produce a suitable preparation of active compound, 1 part by weight of active compound is mixed with the stated amounts of solvent and emulsifier, and the concentrate is diluted with water to the desired concentration. Containers are filled with sand, solution of active compound, Meloidogyne incognita egg/larvae suspension and lettuce seeds. The lettuce seeds germinate and the plants develop. On the roots, galls are formed. After the desired period of time, the nematicidal action in % is determined using the formation of galls as a measure. 100% means that no galls have been found; 0% means that the number of galls on the treated plants corresponds to that on the untreated control.

Avena fatua [8] = assay: Pre-emergence test; format: in vivo; settings: 250 g ai/ha, after three weeks
Description: (§3) [table] To produce a suitable preparation of active compound, 1 part by weight of active compound is mixed with the stated amount of solvent, the stated amount of emulsifier is added and the concentrate is diluted with water to the desired concentration. Seeds of the test plants are sown in normal soil. After about 24 hours, the soil is sprayed with the preparation of active compound such that the particular amounts of active compound desired are applied per unit area. The concentration of the spray liquor is chosen such that the particular amounts of active compound desired are applied in 1000 1 of water/ha. After three weeks, the degree of damage to the plants is rated in % damage in comparison to the development of the untreated control. [table]

oilseed rape = assay: Pre-emergence test; format: in vivo; settings: 250 g ai/ha, after three weeks
Description: as §3

Lolium = assay: Pre-emergence test; format: in vivo; settings: 250 g ai/ha, after three weeks
Description: as §3

sugar beet [9] = assay: Pre-emergence test; format: in vivo; settings: 250 g ai/ha, after three weeks
Description: as §3

Setaria [10] = assay: Pre-emergence test; format: in vivo; settings: 250 g ai/ha, after three weeks
Description: as §3

Bromus = assay: Pre-emergence test; format: in vivo; settings: 250 g ai/ha, after three weeks
Description: as §3

[11] = logP (HPLC; acetonitrile); format: physicochemical; settings: for logP (pH2): pH 2
Text: Yield: 2.4 g ( ? 41.62% of theory), logP (acidic) 4.54 (HPLC; acetonitrile).

SMILES	% damage Avena fatua (Avena fatua [1]; 250 g ai/ha) [%]	% damage Echinochloa (Echinochloa; 250 g ai/ha) [%]	kill of beetle larvae [2]	% damage Alopecurus (Alopecurus; 250 g ai/ha) [%]	% damage Amaranthus (Amaranthus) [%]	% damage Setaria (Setaria [3]) [%]	effect on spider mites [4]	kill of caterpillars [5]	also measured
COC1CCC2(CC1)NC(=O)C(c1nc(-c3ccc(Cl)cc3)sc1C)=C2O (single isomer, unassigned) [Example I-1-A-a-3]	100	100	good activity	–	–	–	–	–	% damage Digitaria (Digitaria; 250 g ai/ha): 100%; % damage Stellaria (Stellaria): 90%; % damage rice (rice): 10%
CCOC1CCC2(CC1)NC(=O)C(c1nc(-c3ccc(Cl)cc3)sc1C)=C2O (single isomer, unassigned) [Example I-1-A-a-4]	100	100	good activity	95	95	100	good activity	good activity	% damage Abutilon (Abutilon): 80%
COC1CCC2(CC1)NC(=O)C(c1nc(-c3ccc(C)cc3)sc1C)=C2O (single isomer, unassigned) [Example I-1-A-a-8]	–	–	good activity	–	–	–	–	–	kill of aphids [6]: good activity
Cc1sc(-c2ccc(Cl)cc2)nc1C1=C(O)C2(CCC(C)CC2)NC1=O (stereo not shown) [Example I-1-A-a-1]	80	95	good activity	80	70	–	–	good activity	% damage Sinapis (Sinapis): 80%
Cc1sc(-c2ccc(Cl)cc2)nc1C1=C(O)C(C)(C)NC1=O [Example I-1-A-a-2]	–	90	good activity	70	90	95	–	good activity	–
Cc1sc(-c2ccc(Cl)cc2)nc1C1=C(O)C2(CCOCC2)NC1=O [Example I-1-A-a-5]	–	100	good activity	80	90	–	good activity	good activity	kill of aphids [6]: good activity
Cc1sc(-c2ccc(Cl)cc2)nc1C1=C(O)C2(CCCOC2)NC1=O (stereo not shown) [Example I-1-A-a-6]	–	–	good activity	–	–	–	good activity	good activity	kill of aphids [6]: good activity; % damage Digitaria (Digitaria; 125 g ai/ha): 95%; % damage Alopecurus (Alopecurus; 125 g ai/ha): 90%; % damage Avena fatua (Avena fatua [1]; 125 g ai/ha): 90%; % damage Echinochloa (Echinochloa; 125 g ai/ha): 90%; % damage sugar beet (sugar beet [7]; 125 g ai/ha): 0%
COC1CCC2(CC1)NC(=O)C(c1nc(-c3ccc(Cl)cc3)sc1C)=C2OC(=O)C(C)C (stereo not shown) [Example I-1-A-b-1]	100	100	–	95	80	100	–	–	% damage Abutilon (Abutilon): 80%
CCOC(=O)OC1=C(c2nc(-c3ccc(Cl)cc3)sc2C)C(=O)NC12CCC(OC)CC2 (stereo not shown) [Example I-1-A-c-1]	95	95	good activity	80	–	90	–	good activity	–
Cc1sc(-c2ccc(Cl)cc2)nc1C1=C(O)C(C)(C)OC1=O [Example I-2-A-a-2]	90	100	good activity	–	–	95	good activity	–	% damage Digitaria (Digitaria; 250 g ai/ha): 90%; % damage Soya bean (Soya bean): 0%; % damage sugar beet (sugar beet [7]; 250 g ai/ha): 0%; nematicidal action (formation of galls) (Meloidogyne incognita): good activity; % damage Avena fatua (Avena fatua [8]): 90%; % damage oilseed rape (oilseed rape): 0%; % damage Lolium (Lolium): 100%; % damage sugar beet (sugar beet [9]): 0%; % damage Setaria (Setaria [10]): 100%; % damage Bromus (Bromus): 90%
Cc1oc(-c2ccccc2)nc1C1=C(O)C(C)(C)OC1=O [Example I-2-B-a-2]	–	–	–	–	–	–	–	–	logP (pH2) [11]: 3.43
CCOC(=O)C1(OC(=O)Cc2nc(-c3ccc(Cl)cc3)sc2C)CCC(OC)CC1 (stereo not shown) [III-A-1]	–	–	–	–	–	–	–	–	chromatographic logP ([11]; acidic, HPLC, acetonitrile): 4.54
CCOC(=O)C(C)(C)OC(=O)Cc1nc(-c2ccc(Cl)cc2)sc1C [III-A-2]	–	–	–	–	–	–	–	–	logP (pH2) [11]: 4.53
